Positions of bridges follow the written chain, without caps; N, C: chain ends. Residues, ends and D or L forms follow the SMILES beside them.
What was measured:
[1] = biological target: T1, GC-C receptors found in rat intestinal mucosa (Rattus norvegicus, UniProt P23897); test: biochemical
T1 sequence (P23897 23-1072): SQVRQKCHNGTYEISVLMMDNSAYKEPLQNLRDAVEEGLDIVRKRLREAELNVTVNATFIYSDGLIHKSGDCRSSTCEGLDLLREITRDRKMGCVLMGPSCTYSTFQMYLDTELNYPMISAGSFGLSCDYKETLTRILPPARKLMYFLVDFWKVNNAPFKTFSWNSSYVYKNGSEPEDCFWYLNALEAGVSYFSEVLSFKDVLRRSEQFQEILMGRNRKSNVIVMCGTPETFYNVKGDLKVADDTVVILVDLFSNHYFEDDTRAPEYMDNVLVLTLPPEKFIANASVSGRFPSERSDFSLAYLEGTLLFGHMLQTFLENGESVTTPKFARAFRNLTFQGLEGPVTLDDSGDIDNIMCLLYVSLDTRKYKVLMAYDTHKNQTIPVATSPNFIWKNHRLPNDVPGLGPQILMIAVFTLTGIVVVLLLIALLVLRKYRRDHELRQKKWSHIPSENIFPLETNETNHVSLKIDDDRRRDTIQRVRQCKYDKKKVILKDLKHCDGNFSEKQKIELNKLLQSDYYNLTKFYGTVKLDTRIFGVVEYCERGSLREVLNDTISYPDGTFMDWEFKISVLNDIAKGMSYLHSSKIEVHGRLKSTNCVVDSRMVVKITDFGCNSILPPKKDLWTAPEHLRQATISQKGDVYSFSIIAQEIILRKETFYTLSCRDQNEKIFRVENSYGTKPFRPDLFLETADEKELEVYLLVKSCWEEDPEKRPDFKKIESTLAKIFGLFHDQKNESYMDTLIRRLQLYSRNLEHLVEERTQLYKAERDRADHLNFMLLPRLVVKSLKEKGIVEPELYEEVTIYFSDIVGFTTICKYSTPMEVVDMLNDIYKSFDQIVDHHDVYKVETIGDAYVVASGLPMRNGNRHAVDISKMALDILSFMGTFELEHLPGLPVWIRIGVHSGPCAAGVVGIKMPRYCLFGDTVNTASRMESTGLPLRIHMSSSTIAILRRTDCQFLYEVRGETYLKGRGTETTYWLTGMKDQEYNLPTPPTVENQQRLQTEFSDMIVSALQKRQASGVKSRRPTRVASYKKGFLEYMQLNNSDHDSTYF
Method: To determine the affinity of SEQ ID NO:3 for GC-C receptors found in rat intestinal mucosa, a competition binding assay was performed using rate intestinal epithelial cells. Epithelial cells from the small intestine of rats were obtained as described by Kessler et al. (J. Biol. Chem. 245: 5281-5288 (1970)). Briefly, animals were sacrificed and their abdominal cavities exposed. The small intestine was rinsed with 300 ml ice cold saline or PBS. 10 cm of the small intestine measured at 10 cm from the pylorus was removed and cut into 1 inch segments. Intestinal mucosa was extruded from the intestine by gentle pressure between a piece of parafilm and a P-1000 pipette tip. Intestinal epithelial cells were placed in 2 ml PBS and pipetted up and down with a 5 ml pipette to make a suspension of cells.
A competition binding assay was performed based on the method of Giannella et al. (Am. J. Physiol. 245: G492-G498) between [^125I] labeled SEQ ID NO:4 and SEQ ID NO:3. The assay mixture contained: 0.5 ml of DME with 20 mM HEPES-KOH pH 7.0, 0.9 mg of the cell suspension listed above, 21.4 fmol [^125I]-SEQ ID NO:4 (42.8 pM), and different concentrations of competitor SEQ ID NO:3 (0.01 to 1000 nM). […] The filters were washed with 5 ml ice-cold PBS and radioactivity was measured.

[2] = tested on: abdominal response to colorectal distension; test: Trinitrobenzenesulphonic acid (TNBS)-induced rectal allodynia model, colorectal distension; format: in vivo, Wistar rats; settings: rats, FIG. 7
Method: Male Wistar rats (220-250 g) were premedicated with 0.5 mg/kg of acepromazine injected intraperitoneally (IP) and anesthetized by intramuscular administration of 100 mg/kg of ketamine. Pairs of nichrome wire electrodes (60 cm in length and 80 μm in diameter) were implanted in the striated muscle of the abdomen, 2 cm laterally from the white line. The free ends of electrodes were exteriorized on the back of the neck and protected by a plastic tube attached to the skin. Electromyographic (EMG) recordings were started 5 days after surgery. Electrical activity of abdominal striated muscle was recorded with an electroencephalograph machine (Mini VIII, Alvar, Paris, France) using a short time constant (0.03 sec.) to remove low-frequency signals (<3 Hz).
Ten days post surgical implantation, trinitrobenzenesulphonic acid (TNBS) was administered to induce rectal inflammation. TNBS (80 mg kg^−1 in 0.3 ml 50% ethanol) was administered intrarectally through a silicone rubber catheter introduced at 3 cm from the anus under light diethyl-ether anesthesia, as described (Morteau et al. 1994 Dig Dis Sci 39:1239). […] Evaluation of rectal sensitivity, as measured by EMG, was performed before (1-2 days) and 3 days following rectal instillation of TNBS.
The number of spike bursts that corresponds to abdominal contractions was determined per 5 min periods. […]

C[C@@H]1NC(=O)[C@@H]2CCCN2C(=O)[C@H](CC(N)=O)NC(=O)[C@@H]2CSSC[C@H](N)C(=O)N[C@H]3CSSC[C@H](NC1=O)C(=O)N[C@@H]([C@@H](C)O)C(=O)NCC(=O)N[C@H](C(=O)N[C@@H](Cc1ccc(O)cc1)C(=O)O)CSSC[C@H](NC(=O)[C@H](Cc1ccc(O)cc1)NC(=O)[C@H](CCC(=O)O)NC3=O)C(=O)N2 [SEQ ID NO:3, Cys Cys Glu Tyr Cys Cys Asn Pro Ala Cys Thr Gly Cys Tyr] (H-CCEYCCNPACTGCY-OH; disulfide 1-6, 2-10, 5-13; N-terminus and C-terminus assumed)
Kd [1]: 4.5 nM
abdominal response (abdominal contractions, EMG) ([2]; 0.3 μg/kg): Significant decreases in abdominal response
abdominal response (abdominal contractions, EMG) ([2]; 3 μg/kg): Significant decreases in abdominal response
